Reference: patent US12653899B2, “Multi-targeted, tunable, sustained delivery of payloads to charged avascular tissues” (Massachusetts Institute of Technology, priority 2019, dated 2026)
Entries after “also recorded” stand apart in the source; their conditions may differ.

Legend:
[1] = tested on: human ankle cartilage explants treated with IL-1β; assay: IL-1β cytokine challenge model, sGAG biosynthesis rate in human ankle cartilage explants; format: cell-based; conditions: continuous 39.2 nM IGF-1; 10 ng/ml mouse IL-1β; FIG. 20
[2] = tested on: human ankle cartilage explants; assay: Cumulative sGAG loss and final explant sGAG content (DMMB), human ankle cartilage dose response; format: cell-based; conditions: continuous free IGF-1; any of the three time points
Description: Since each fusion protein had one IGF-1 domain, equivalent doses (39.2 nM) of these were tested. In addition to this, 500 nM, 1 μM and 2 μM doses of fusion proteins were also tested. In all cases, only a single dose of the fusion proteins was added at the start of the experiment, and media changes were carried out without fusion proteins once every 2 to 3 days thereafter. In contrast, continuous doses of free IGF-1 were used for the positive control. An untreated control group was also included in the experiments. Experiments were terminated at 3-day, 7-day and 15-day time points. Outcome measures included the biosynthesis rate of sulfated glycosaminoglycans (sGAG), explant metabolic rate, sGAG loss to the culture medium and the explant sGAG content at the end of the experiment.
The metabolic rate of cartilage explants was measured using the Alamar Blue assay (ThermoFisher). […] At the end of the incubation period, the absorbance of the medium at 570 nm and 600 nm was measured using a microplate reader (Synergy H1 Hybrid Multi-Mode Microplate Reader, BioTek). These readings were used to calculate the percentage reduction of Alamar Blue, which is directly proportional to the explant metabolic rate. […] Following this, the weight-normalized readings for the treatment groups were normalized by the weight-normalized mean value for the untreated controls. […]

## IGF-1: free recombinant human IGF-1 (PeproTech), pro-anabolic growth factor used as the positive control
[1]
  rescue of the biosynthesis loss caused by IL-1: rescued; also recorded: could rescue
[2]
  final explant GAG content or cumulative GAG loss percent compared to the untreated control: did not have any change
